Consider 28 compounds from patent US8815881B2 (Hoffmann-La Roche Inc., priority 2010, dated 2014).

Molecules are shown by their SMILES.

The target in the experiment is endogenous cellular BACE2 in the Ins1e rat cell line (Rattus norvegicus (Rat), UniProt Q6IE75). Kind of experiment: Assay for BACE inhibition by measuring cellular TMEM27 cleavage (ELISA of shed hTMEM27 from INS-TMEM27 cells). The experiment is classed as cell-based. Particulars: assay a): cellular TMEM27 cleavage, INS-TMEM27 cells (superscript a). An excerpt:
a) Assay for BACE Inhibition by Measuring Cellular TMEM27 Cleavage:
The assay uses the principle of inhibition of human TMEM27 cleavage by endogenous cellular BACE2 in the Ins1e rat cell line and shedding from the cell surface into the culture medium, followed by detection in an ELISA assay. Inhibition of BACE2 prevents the cleavage and shedding in a dose-dependent manner.
The stable cell line “INS-TMEM27” represents an INS1e-derived cell line with inducible expression (using the TetOn system) of full-length hTMEM27 in a doxycycline-dependent manner. The cells are cultured throughout the experiment in RPMI1640+Glutamax (Invitrogen) Penicillin/Streptomycin, 10% Fetal bovine serum, […], […], 100 micrograms/ml G418 and 100 microgram/ml hygromycin and are grown inadherent culture at 37° C. in a standard CO2 cell culture incubator.
INS-TMEM27 cells are seeded in 96-well plates. After 2 days in culture, BACE2 inhibitor is added in a range of concentrations as required by the assay and after a further two hours, doxycycline is added to a final concentration of 500 ng/ml. The cells are incubated for a further 46 hours and the supernatant harvested for detection of shed TMEM27.
An ELISA assay (using a pair of mouse anti-human-TMEM27 antibodies, raised against the extracellular domain of TMEM27) is used for detection of TMEM27 in the culture medium. An EC50 for BACE2 inhibition is calculated using the ELISA readout for each inhibitor concentration with standard curve-fitting software such as XLFit for the Excel spreadsheet program.
On the technique in general: ELISA stands for enzyme-linked immunosorbent assay.

endogenous cellular BACE2 in the Ins1e rat cell line, sequence (Q6IE75 63-514): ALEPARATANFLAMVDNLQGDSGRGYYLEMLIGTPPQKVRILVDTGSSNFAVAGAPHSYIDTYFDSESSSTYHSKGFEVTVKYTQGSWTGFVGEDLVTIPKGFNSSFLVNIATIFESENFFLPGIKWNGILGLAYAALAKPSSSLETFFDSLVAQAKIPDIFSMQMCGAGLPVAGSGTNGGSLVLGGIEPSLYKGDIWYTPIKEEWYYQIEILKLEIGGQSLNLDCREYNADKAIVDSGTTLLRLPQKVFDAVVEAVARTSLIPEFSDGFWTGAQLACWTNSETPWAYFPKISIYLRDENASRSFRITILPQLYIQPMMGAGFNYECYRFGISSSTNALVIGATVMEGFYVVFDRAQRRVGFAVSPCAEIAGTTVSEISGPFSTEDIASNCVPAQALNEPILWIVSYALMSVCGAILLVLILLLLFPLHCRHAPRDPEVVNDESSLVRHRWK

For orientation: IC50 means the concentration that gives 50% inhibition. In the case of `CN1C(=O)C(C)(C)[C@@](C)(c2cc(Nc3ccc(C#N)cc3F)ccc2F)N=C1N` [Example 152, (S)-4-(3-(2-Amino-1,4,5,5-tetramethyl-6-oxo-1,4,5,6-tetrahydropyrimidin-4-yl)-4-fluorophenylamino)-3-fluorobenzonitrile], the IC50 is 2 nM.
Under `CC[C@H]1C(=O)N(C)C(N)=N[C@]1(C)c1cccc(NC(=O)C2(C(F)(F)F)CC2)c1` [Example 11, 1-Trifluoromethyl-cyclopropanecarboxylic acid [3-((4S,5R)-2-amino-5-ethyl-1,4-dimethyl-6-oxo-1,4,5,6-tetrahydro-pyrimidin-4-yl)-phenyl]-amide] stands 14 nM; under `CN1C(=O)C(C)(C)[C@@](C)(c2cc(NC3CCCN(Cc4ccccc4)C3)ccc2F)N=C1N` (stereo partly drawn) [Example 44, (S)-2-Amino-6-[5-(1-benzyl-piperidin-3-ylamino)-2-fluoro-phenyl]-3,5,5,6-tetramethyl-5,6-dihydro-3H-pyrimidin-4-one], 45 nM.
The value for `CN1C(=O)C(C)(C)[C@@](C)(c2cccc(NC(=O)C3(C#N)CC3)c2)N=C1N` [Example 1, 1-Cyano-cyclopropanecarboxylic acid [3-((R)-2-amino-1,4,5,5-tetramethyl-6-oxo-1,4,5,6-tetrahydro-pyrimidin-4-yl)-phenyl]-amide] was 57 nM; that for `Cc1cc(C)c(Nc2ccc(F)c([C@@]3(C)N=C(N)N(C)C(=O)C3(C)C)c2)cc1C` [Example 146, (S)-2-Amino-6-(2-fluoro-5-(2,4,5-trimethylphenylamino)phenyl)-3,5,5,6-tetramethyl-5,6-dihydropyrimidin-4(3H)-one] was 257 nM; that for `CN1C(=O)C(C)(C)[C@@](C)(c2cc(NCc3nn(C)cc3Cl)ccc2F)N=C1N` [Example 96, (S)-2-Amino-6-{5-[(4-chloro-1-methyl-1H-pyrazol-3-ylmethyl)-amino]-2-fluoro-phenyl}-3,5,5,6-tetramethyl-5,6-dihydro-3H-pyrimidin-4-one] was 1 nM.
The value for `Cc1cc(Nc2ccc(F)c([C@@]3(C)N=C(N)N(C)C(=O)C3(C)C)c2)n(C)n1` [Example 39, (S)-2-Amino-6-[5-(2,5-dimethyl-2H-pyrazol-3-ylamino)-2-fluoro-phenyl]-3,5,5,6-tetramethyl-5,6-dihydro-3H-pyrimidin-4-one] was 234 nM; that for `Cc1ccc(Cl)cc1Nc1ccc(F)c([C@@]2(C)N=C(N)N(C)C(=O)C2(C)C)c1` [Example 118, (S)-2-Amino-6-(5-(5-chloro-2-methylphenylamino)-2-fluorophenyl)-3,5,5,6-tetramethyl-5,6-dihydropyrimidin-4(3H)-one] was 2 nM; that for `CN1C(=O)C(C)(C)[C@@](C)(c2cc(NC(=O)[C@@H]3CC3(F)F)ccc2F)N=C1N` [Example 10, (S)-2,2-difluoro-cyclopropanecarboxylic acid [3-((S)-2-amino-1,4,5,5-tetramethyl-6-oxo-1,4,5,6-tetrahydro-pyrimidin-4-yl)-4-fluoro-phenyl]-amide] was 2 nM.
The compound `CN1C(=O)C(C)(C)[C@@](C)(c2cc(NC3CS(=O)(=O)c4ccccc43)ccc2F)N=C1N` (stereo partly drawn) [Example 144, (S)-2-Amino-6-[5-(1,1-dioxo-2,3-dihydro-1H-1-benzo[b]thiophen-3-ylamino)-2-fluoro-phenyl]-3,5,5,6-tetramethyl-5,6-dihydro-3H-pyrimidin-4-one] returned an IC50 of 3 nM.
The value for `CN1C(=O)C(C)(C)[C@@](C)(c2cc(NCC3(c4ccccc4)CC3)ccc2F)N=C1N` [Example 53, (S)-2-Amino-6-{2-fluoro-5-[(1-phenyl-cyclopropylmethyl)-amino]-phenyl}-3,5,5,6-tetramethyl-5,6-dihydro-3H-pyrimidin-4-one] was 153 nM.
The value for `CN1C(=O)C[C@@](C)(c2cccc(NC(=O)C3(C(F)(F)F)CC3)c2)N=C1N` [Example 12, 1-Trifluoromethyl-cyclopropanecarboxylic acid [3-((S)-2-amino-1,4-dimethyl-6-oxo-1,4,5,6-tetrahydro-pyrimidin-4-yl)-phenyl]-amide] was 23 nM; that for `CN1C(=O)C(C)(C)[C@@](C)(c2cc(NC[C@@H]3C[C@H]3c3ccccc3)ccc2F)N=C1N` [Example 97, (S)-2-Amino-6-{2-fluoro-5-[((1R,2R)-2-phenyl-cyclopropylmethyl)-amino]-phenyl}-3,5,5,6-tetramethyl-5,6-dihydro-3H-pyrimidin-4-one] was 242 nM; that for `CN1C(=O)C(C)(C)[C@@](C)(c2cc(NC3CCCC3)ccc2F)N=C1N` [Example 21, (S)-2-Amino-6-(5-(cyclopentylamino)-2-fluorophenyl)-3,5,5,6-tetramethyl-5,6-dihydropyrimidin-4(3H)-one] was 14 nM.
Regarding `Cc1cn[nH]c1CNc1ccc(F)c([C@@]2(C)N=C(N)N(C)C(=O)C2(C)C)c1` [Example 110, (S)-2-Amino-6-{2-fluoro-5-[(4-methyl-2H-pyrazol-3-ylmethyl)-amino]-phenyl}-3,5,5,6-tetramethyl-5,6-dihydro-3H-pyrimidin-4-one], the IC50 turned out to be 391 nM.
Regarding `CN1C(=O)C(C)(C)[C@@](C)(c2cc(NC(=O)CC(F)(F)F)ccc2F)N=C1N` [Example 3, N-[3-((S)-2-Amino-1,4,5,5-tetramethyl-6-oxo-1,4,5,6-tetrahydro-pyrimidin-4-yl)-4-fluoro-phenyl]-3,3,3-trifluoro-propionamide], the IC50 amounted to 11 nM.
The value for `CN1C(=O)C(C)(C)[C@@](C)(c2cc(NC3CCCC3Cl)ccc2F)N=C1N` (stereo partly drawn) [Example 30, (6S)-2-Amino-6-(5-(2-chlorocyclopentylamino)-2-fluorophenyl)-3,5,5,6-tetramethyl-5,6-dihydropyrimidin-4(3H)-one] was 33 nM; that for `CN1C(=O)C(C)(C)[C@@](C)(c2cc(Nc3ccn(C)n3)ccc2F)N=C1N` [Example 99, (S)-2-Amino-6-[2-fluoro-5-(1-methyl-1H-pyrazol-3-ylamino)-phenyl]-3,5,5,6-tetramethyl-5,6-dihydro-3H-pyrimidin-4-one] was 6 nM; that for `CC(=O)OC1CC2CC1CC2Nc1ccc(F)c([C@@]2(C)N=C(N)N(C)C(=O)C2(C)C)c1` (stereo partly drawn) [Example 93, Acetic acid 5-[3-((S)-2-amino-1,4,5,5-tetramethyl-6-oxo-1,4,5,6-tetrahydro-pyrimidin-4-yl)-4-fluoro-phenylamino]-bicyclo[2.2.1]hept-2-yl ester] was 25 nM.
The compound `CN1C(=O)C(C)(C)[C@@](C)(c2cc(NC3COC3)ccc2F)N=C1N` [Example 132, (S)-2-Amino-6-[2-fluoro-5-(oxetan-3-ylamino)-phenyl]-3,5,5,6-tetramethyl-5,6-dihydro-3H-pyrimidin-4-one] showed an IC50 of 54 nM.
The value for `CN1C(=O)C(C)(C)[C@@](C)(c2cccc(NC(=O)C3(C(F)(F)F)CC3)c2)N=C1N` [Example 2, 1-Trifluoromethyl-cyclopropanecarboxylic acid [3-((R)-2-amino-1,4,5,5-tetramethyl-6-oxo-1,4,5,6-tetrahydro-pyrimidin-4-yl)-phenyl]-amide] was 82 nM; that for `CCOC(=O)CC1CCC(Nc2ccc(F)c([C@@]3(C)N=C(N)N(C)C(=O)C3(C)C)c2)C1(C)C` (stereo partly drawn) [Example 98, {3-[3-((S)-2-Amino-1,4,5,5-tetramethyl-6-oxo-1,4,5,6-tetrahydro-pyrimidin-4-yl)-4-fluoro-phenylamino]-2,2-dimethyl-cyclopentyl}-acetic acid ethyl ester] was 57 nM.
The value for `CC(Nc1ccc(F)c([C@@]2(C)N=C(N)N(C)C(=O)C2(C)C)c1)c1ccccn1` (stereo partly shown) [Example 40] was 21 nM; that for `Cc1nc(C(C)Nc2ccc(F)c([C@@]3(C)N=C(N)N(C)C(=O)C3(C)C)c2)sc1C` (stereo partly drawn) [Example 126, (S)-2-Amino-6-{5-[1-(4,5-dimethyl-thiazol-2-yl)-ethylamino]-2-fluoro-phenyl}-3,5,5,6-tetramethyl-5,6-dihydro-3H-pyrimidin-4-one] was 26 nM.
Consider `CN1C(=O)C(C)(C)[C@@](C)(c2cc(NCc3ccon3)ccc2F)N=C1N` [Example 86, (S)-2-Amino-6-{2-fluoro-5-[(isoxazol-3-ylmethyl)-amino]phenyl}-3,5,5,6-tetramethyl-5,6-dihydro-3H-pyrimidin-4-one], for which the IC50 amounted to 236 nM.
The value for `CN1C(=O)C(C)(C)[C@@](C)(c2cc(NC(=O)C3(C)CC3)ccc2F)N=C1N` [Example 18, (S)—N-(3-(2-Amino-1,4,5,5-tetramethyl-6-oxo-1,4,5,6-tetrahydropyrimidin-4-yl)-4-fluorophenyl)-1-methylcyclopropanecarboxamide] was 23 nM.
The compound `CN1C(=O)C(C)(C)[C@@](C)(c2cc(Nc3cccc(F)c3)ccc2F)N=C1N` [Example 88, (S)-2-Amino-6-[2-fluoro-5-(3-fluoro-phenylamino)-phenyl]-3,5,5,6-tetramethyl-5,6-dihydro-3H-pyrimidin-4-one] returned an IC50 of 795 nM.
The value for `Cc1cc(Nc2ccc(F)c([C@@]3(C)N=C(N)N(C)C(=O)C3(C)C)c2)ccc1C#N` [Example 149, (S)-4-(3-(2-Amino-1,4,5,5-tetramethyl-6-oxo-1,4,5,6-tetrahydropyrimidin-4-yl)-4-fluorophenylamino)-2-methylbenzonitrile] was 81 nM.
